Laboratory results from patent US20210161993A1, “Method for accelerated healing of burn wounds” (PVP LABS PTE. LTD., priority 2018, published 2021).
Peptide text beside a SMILES is read from it.

Assays:
II-IIIA degree burns [1] = test: Burn model in rats, hexapeptide as topical 0.02-0.5% solution (Example 3); assay type: in vivo, outbred male rats; details: for Day on which burn wound hyperaemia score reached 0: after thermal injury; for Day on which burn wound hyperaemia score reached 0 / Burn wound oedema score: topical; for Burn wound oedema score: score 0-3
Method: The efficacy of topical administration of tyrosyl-D-alanyl-glycyl-phenylalanyl-leucyl-arginine in the therapy of thermal burns was evaluated on models of II-IIIA degree burns in 30 outbred male rats. The animals were kept in a vivarium (ambient temperature 19-23° C.) according to Good Laboratory Practices of the Eurasian Economic Union and the applicable guidelines (Reference).
Flat-bottom glass containers of an appropriate diameter filled with liquid paraffin to ⅔ of their volume were used as the thermal agent. The containers were heated on a water bath before application to the skin of the rats, which were randomized to three groups (n=10 in each group): the control group and two experimental groups. Another tissue repair stimulator, dexpanthenol (5% topical ointment), was used as the comparator. All the rats received burns with a standardized area of ≈40 cm^2. Within 20 min. after inflicting the thermal injury, control group animals were treated by applying an aseptic dressing followed by therapy with Iodopiron and Levomecol (group I); animals in the experimental groups additionally received dexpanthenol (group II) or 0.02-0.5% solution of hexapeptide tyrosyl-D-alanyl-glycyl-phenylalanyl-leucyl-arginine (group III consisting of 5 animals that received 0.02% solution and 5 animals that received 0.5% solution).
The experiment involved evaluating the general condition of the animals and performing gross examination to evaluate the severity of tissue oedema in the burn region, hyperaemia, infiltration, appearance of wound discharge and wound epithelialization. These signs were scored as follows: maximum severity of a sign corresponded to a score of 3 points, and absence of a sign to a score of 0. Objective assessment of the healing process was based on planimetric measurements. All the observations were performed on days 1, 3, 5, 7 and 10 of the experiment.
The healing rate was determined using the formula V=(S1−S2)/t, where S1=wound area during the previous measurement, S2=wound area during the next measurement, t=number of days between the previous and the next measurement.
The experiment also included an evaluation of the white blood cell population as a ratio of the total number of lymphocytes to segmented cells in venous blood.

burn injury = details: intraperitoneal; during 14 days after burn injury; Dalargin 0.5 mg/kg; control 60%; cited from earlier work
3rd degree burn = details: 0.3 mg subcutaneously; cited from earlier work
neutrophils = details: cited from earlier work
linear wounds = test: Linear (planar) skin wound model in rats (Example 4); assay type: in vivo, white male Wistar rats
Method: The study was performed in white male Wistar rats. All the animals were randomized to three groups of 13 rats each: (I) control Group (untreated), (II) comparator Group (Bepanthen topical cream with 5% dexpanthenol) and (III) experimental Group (hexapeptide tyrosyl-D-alanyl-glycyl-phenylalanyl-leucyl-arginine). The Group III consisted of 5 animals that received 0.02% solution and 5 animals that received 0.5% solution.
Linear wounds were modeled by an approximately 4-cm-long longitudinal incision in the skin and subcutaneous fat along the midline of the back. After making the incision, the edges of the wound were brought together, and three sutures were applied at an equal distance. The animals received the study drugs starting on the day of the operation; the control Group received a placebo. In each group, 3 rats were intended for a tensometric study, which required euthanasia on day 7 of the experiment. Samples for a histological evaluation were collected immediately after complete healing (on days 25-26).
The study drugs were applied once daily, every day, for 20 days. The wound healing effect was evaluated based on the clinical course (presence of purulent discharge, dynamics of wound edge attachment) on days 4, 7, 15 and 20 of the experiment.

II-IIIA degree burns [2] = test: Burn model in rats, hexapeptide as 0.02% and 0.5% gel (Example 5); assay type: in vivo, outbred male rats; details: for Average healing rate of burn wounds, difference to control Group I: FIG. 4; for Burn area (planimetry), dynamics of burn wound healing: vs control and Bepanthen
Method: The efficacy of topical administration of hexapeptide tyrosyl-D-alanyl-glycyl-phenylalanyl-leucyl-arginine in the therapy of thermal burns was evaluated on models of II-IIIA degree burns in 40 outbred male rats. The animals were kept in a vivarium according to Good Laboratory Practices of the Eurasian Economic Union and the applicable guidelines (Reference). Flat-bottom glass containers of an appropriate diameter filled with liquid paraffin to ⅔ of their volume were used as a thermal agent. The animals were randomized to four groups (n=10 in each group): Group I was the control group. A popular tissue repair product, Bepanthen (topical cream with 5% dexpanthenol), was used as the comparator. Burn area was standardized at Æ40 cm^2.
An aseptic dressing applied within the first 20 minutes after the burn, followed by therapy with Iodopiron and Levomecol, was used for control Group I. Group II was treated with Bepanthen. Group III received hexapeptide tyrosyl-D-alanyl-glycyl-phenylalanyl-leucyl-arginine as 0.02% topical gel, while Group IV received hexapeptide tyrosyl-D-alanyl-glycyl-phenylalanyl-leucyl-arginine as 0.5% topical gel.
In addition to monitoring the general condition of the animals on days 1, 3, 5, 7 and 10 of the experiment, the healing process was evaluated planimetrically. The healing rate was determined using the formula V=(S1-S2)/t, where S1=wound area during the previous measurement, S2=wound area during the next measurement, t=number of days between the previous and the next measurement.

Molecule | Day on which burn wound hyperaemia score reached 0 (II-IIIA degree burns [1]) [days] | Burn wound oedema score (II-IIIA degree burns [1]; day 1 after thermal injury) [points] | Burn wound oedema score (II-IIIA degree burns [1]; day 5 after thermal injury) [points] | Burn wound oedema score (II-IIIA degree burns [1]; day 7 after thermal injury) [points] | Reduction of hyperaemia compared with Dexpanthenol (II-IIIA degree burns [1]; topical 0.02-0.5% solution) | Average healing rate of burn wounds, difference to control Group I (II-IIIA degree burns [1]; topical 0.02-0.5% solution, FIG. 1) | Burn area (planimetry), dynamics of burn wound healing (II-IIIA degree burns [1]; topical 0.02-0.5% solution, vs control and Dexpanthenol) | Day on which lymphocyte-neutrophil ratio returned to normal (II-IIIA degree burns [1]; venous blood, topical 0.02-0.5% solution, FIG. 2) [days] | Mortality rate (burn injury) [%] | Skin repair and productive inflammation (3rd degree burn) | Effect on activated neutrophils and NADPHase activity (neutrophils; blood of healthy humans (n=27)) | Effect on functional and metabolic activity of neutrophils (neutrophils; peripheral blood samples of burn patients (n=15)) | Tensiometric evaluation, superiority relative to control Group I (linear wounds; day 7 of the experiment) | Healing of the linear wound (visual inspection) (linear wounds; once daily for 20 days, relative to control and comparator, FIG. 3) | Histological evaluation of the scar (linear wounds; samples collected after complete healing (days 25-26)) | Average healing rate of burn wounds, difference to control Group I (II-IIIA degree burns [2]; 0.02% topical gel (Group III)) | Burn area (planimetry), dynamics of burn wound healing (II-IIIA degree burns [2]; 0.02% topical gel (Group III)) | Average healing rate of burn wounds, difference to control Group I (II-IIIA degree burns [2]; 0.5% topical gel (Group IV)) | Burn area (planimetry), dynamics of burn wound healing (II-IIIA degree burns [2]; 0.5% topical gel (Group IV)) | Reduction of burn area, 0.5% gel (Group IV) relative to 0.02% gel (Group III) (II-IIIA degree burns [2]; not statistically significant)
CC(C)(CO)[C@@H](O)C(=O)NCCCO [Dexpanthenol, dexpanthenol] | 7 | 2.0±0.5 | 0.7±0.5 | 0.3±0.3 |  |  |  |  |  |  |  |  |  |  |  |  |  |  |  | 
CC(C)C[C@H](NC(=O)[C@H](Cc1ccccc1)NC(=O)CNC(=O)[C@@H](C)NC(=O)[C@@H](N)Cc1ccc(O)cc1)C(=O)N[C@@H](CCCNC(=N)N)C(=O)O [tyrosyl-D-alanyl-glycyl-phenylalanyl-leucyl-arginine] (HELM PEPTIDE1{Y.[dA].G.F.L.R}$$$$V2.0) | 5 | 1.0±0.4 | 0.3±0.2 | 0.0±0.0 | statistically significantly more effective | Statistically significant differences | significant reduction of burn area already on day 3 | 7 | 75 | significant acceleration of skin repair and reduced intensity of productive inflammation | increasing the total number of activated neutrophils and NADPHase activity | normalized elevated functional and metabolic activity of neutrophils | over than twofold | more rapid healing of the linear wound | fibrous components were dominant in scar tissue relative to cellular components | Statistically significant differences | pronounced statistically significant positive dynamics of burn wound healing | Statistically significant differences | pronounced statistically significant positive dynamics of burn wound healing | numerically greater reduction of burn area
delta sleep-inducing peptide [DSIP] |  |  |  |  |  |  |  |  | 20 |  |  |  |  |  |  |  |  |  |  | 
